Source: US20030022158A1, “Peptides from the TT virus sequence and monospecific antibodies binding to the TT virus” (priority 1999, published 2003)

Assays:
[1] = system: human IgG antibodies in human serum samples; assay: EIA of human antibody reactivities to overlapping synthetic peptides of TTV ORF1 and ORF2 (Tables 2 and 3); type: binding; conditions: for optical density (OD) at 405 nm: serum diluted 1:100, OD over 0.500 considered positive; for human reactivity to peptide (reactive peptides within ORF1): tested human sera, EIA
Description: Overlapping peptides (18 amino acids in length containing an 8 amino acid overlap) corresponding to regions of the ORFI and ORF2 of TTV (TABLE 1; Genebank accession no AB008394) were produced by a multiple peptide synthesizer (Syro, Syntex, Germany) using standard Fmoc chemistry (Sallberg et al., Immunology Letters, 30:59 68 (1991), herein expressly incorporated by reference in its entirety).
(§1) The EIAs used to identify which peptides interacted with human sera followed protocols known in the art. (See Zhang et al., J Gen Virol, 78:2735-2746 (1997), herein expressly incorporated by reference in its entirety). Briefly, microplates (Nunc, Denmark) were coated for 48 hours with synthetic peptides at a concentration of 10 μg/ml in 0.05M sodium carbonate buffer pH 9.6. After blocking for 2 hours at room temperature with phosphate buffered saline containing 1% bovine serum albumin, 2% goat serum and 0.05% Tween 20 (dilution buffer) the plates were incubated with human sera diluted 1:100 in dilution buffer. Bound human IgG was detected by incubation with anti-human IgG antibodies conjugated to alkaline phosphatase (Sigma Chemicals, St. Louis, Mo.). The plates were developed by the addition of […] (Sigma) and the optical densities were determined at 405 nm.

[2] = system: human antibodies in human serum samples; assay: EIA reactivities of three human serum samples with deletion and alanine substitution analogues of SEQ ID NO: 1 (Table 6); type: binding; conditions: positive = more than 50% of the reactivity of the original peptide
Experimental: as §1
The reactivity to the TATTTTYAYPGTNRPPV (SEQ ID NO: 1) peptide was further characterized by mapping the reactivity of deletion and substitution peptide analogues.

[3] = human serum sample 1, negative for TTV DNA by PCR
[4] = human serum sample 2, negative for TTV DNA by PCR
[5] = human serum sample 3, negative for TTV DNA by PCR
[6] = human serum sample 4, negative for TTV DNA by PCR
[7] = human serum sample 5, negative for TTV DNA by PCR
[8] = human serum sample 6, negative for TTV DNA by PCR
[9] = human serum sample 7, negative for TTV DNA by PCR
[10] = human serum sample 9, positive for TTV DNA by PCR
[11] = human serum sample 11, negative for TTV DNA by PCR
[12] = human serum sample 18, positive for TTV DNA by PCR
[13] = human serum sample 36, positive for TTV DNA by PCR
[14] = human serum sample 48, positive for TTV DNA by PCR
[15] = human serum sample 98, positive for TTV DNA by PCR
[16] = human serum sample 110, positive for TTV DNA by PCR
[17] = human serum sample 155, positive for TTV DNA by PCR
[18] = human serum sample 157, positive for TTV DNA by PCR

Substance: 21: overlapping synthetic peptide of TTV ORF1 (TATTTTYAYPGTNRP) [compound 21]
- optical density (OD) at 405 nm [1, 3]: 0.00 OD
- optical density (OD) at 405 nm [1, 4]: 0.00 OD
- optical density (OD) at 405 nm [1, 5]: 0.00 OD
- optical density (OD) at 405 nm [1, 6]: 0.00 OD
- optical density (OD) at 405 nm [1, 7]: 0.00 OD
- optical density (OD) at 405 nm [1, 8]: 0.00 OD
- optical density (OD) at 405 nm [1, 9]: 0.00 OD
- optical density (OD) at 405 nm [1, 10]: 0.00 OD
- optical density (OD) at 405 nm [1, 11]: 0.00 OD
- optical density (OD) at 405 nm [1, 12]: 0.00 OD
- optical density (OD) at 405 nm [1, 13]: 0.00 OD
- optical density (OD) at 405 nm [1, 14]: 0.00 OD
- optical density (OD) at 405 nm [1, 15]: 0.00 OD
- optical density (OD) at 405 nm [1, 16]: 0.00 OD
- optical density (OD) at 405 nm [1, 17]: 0.00 OD
- optical density (OD) at 405 nm [1, 18]: 0.00 OD
- OD at 405 nm, reactivity of human serum sample P4 [2]: 0.100 OD
- OD at 405 nm, reactivity of human serum sample P7 [2]: 0.099 OD
- OD at 405 nm, reactivity of human serum sample P36 [2]: 0.078 OD

Substance: DQNIHMNARLLIRSPFT (Peptide Immunogen) [compound 50, overlapping synthetic peptide of TTV ORF1]
- optical density (OD) at 405 nm [1, 3]: 0.07 OD
- optical density (OD) at 405 nm [1, 4]: 0.09 OD
- optical density (OD) at 405 nm [1, 5]: 0.08 OD
- optical density (OD) at 405 nm [1, 6]: 0.09 OD
- optical density (OD) at 405 nm [1, 7]: 0.08 OD
- optical density (OD) at 405 nm [1, 8]: 0.86 OD
- optical density (OD) at 405 nm [1, 9]: 0.29 OD
- optical density (OD) at 405 nm [1, 10]: 0.08 OD
- optical density (OD) at 405 nm [1, 11]: 0.18 OD
- optical density (OD) at 405 nm [1, 12]: 0.07 OD
- optical density (OD) at 405 nm [1, 13]: 0.07 OD
- optical density (OD) at 405 nm [1, 14]: 0.07 OD
- optical density (OD) at 405 nm [1, 15]: 0.10 OD
- optical density (OD) at 405 nm [1, 16]: 0.20 OD
- optical density (OD) at 405 nm [1, 17]: 0.63 OD
- optical density (OD) at 405 nm [1, 18]: 0.46 OD
- human reactivity to peptide (reactive peptides within ORF1) [1]: Reactive
- OD at 405 nm, reactivity of human serum sample P4 [2]: 0.836 OD
- OD at 405 nm, reactivity of human serum sample P7 [2]: 1.769 OD
- OD at 405 nm, reactivity of human serum sample P36 [2]: 0.850 OD

Substance: GLYSSIWLSPGRSYFET (Peptide Immunogen) [compound 42, overlapping synthetic peptide of TTV ORF1]
- optical density (OD) at 405 nm [1, 3]: 0.08 OD
- optical density (OD) at 405 nm [1, 4]: 0.11 OD
- optical density (OD) at 405 nm [1, 5]: 0.09 OD
- optical density (OD) at 405 nm [1, 6]: 0.10 OD
- optical density (OD) at 405 nm [1, 7]: 0.17 OD
- optical density (OD) at 405 nm [1, 8]: 0.23 OD
- optical density (OD) at 405 nm [1, 9]: 0.11 OD
- optical density (OD) at 405 nm [1, 10]: 0.27 OD
- optical density (OD) at 405 nm [1, 11]: 0.19 OD
- optical density (OD) at 405 nm [1, 12]: 0.12 OD
- optical density (OD) at 405 nm [1, 13]: 0.10 OD
- optical density (OD) at 405 nm [1, 14]: 0.09 OD
- optical density (OD) at 405 nm [1, 15]: 0.16 OD
- optical density (OD) at 405 nm [1, 16]: 0.42 OD
- optical density (OD) at 405 nm [1, 17]: 0.35 OD
- optical density (OD) at 405 nm [1, 18]: 1.24 OD
- human reactivity to peptide (reactive peptides within ORF1) [1]: Reactive
- OD at 405 nm, reactivity of human serum sample P4 [2]: 0.135 OD
- OD at 405 nm, reactivity of human serum sample P7 [2]: 0.242 OD
- OD at 405 nm, reactivity of human serum sample P36 [2]: 0.076 OD
